Tests used:
T-47D cells = assay: Tritiated thymidine incorporation (proliferation) in T-47D cells; assay type: cell-based, human; conditions: 48 h
Method: (§1) After seeding, cells were cultured for 24 h in serum and phenol red free medium. Then treatments were carried out in a phenol red free medium containing 5% dextran-charcoal stripped serum. Cells were treated with P or DEX (100 nM), alone or in combination with UPA, RU (1 nM to 1 μM) or CDB-3877 (100 nM). Control cells were treated with ethanol, at […] 1:1000 final ethanol concentration alone as vehicle or E2 (10 nM).
(§2) After 24 h of hormonal treatment, cells were incubated with [methyl-1 3H] thymidine (Perkin Elmer, Courtaboeuf, France) for 48 h or 20 h for KBE or cancer cells, respectively at 37° C. After incubation cells were washed twice with PBS 1× and once with 5% trichloroacetic acid (TCA). Cells were incubated in 5% TCA for 15 min at 4° C. and lysed in NaOH 0.1 N for 30 min at 37° C. The total cell lysate was added to 5 ml of Ecolite scintillation liquid (MP biomedical, Illkirch, France) and radioactivity was counted with a β-counter HIDEX 300SL (ScienceTec, Courtaboeuf, France).

[1] = system: GR target genes (IEX-1, G0S8, cyclin A, BCL2); assay: qRT-PCR mRNA expression of GR target genes in HBE cells; assay type: cell-based, human
Method: as §1
Total RNA was extracted using TriZOL Reagent (Invitrogen, Cergy-Pontoise, France).
2 μg of total RNA was subjected to reverse transcription (RT) using random primers for 1 h at 37° C. 2 μl of RT product was diluted (1:10) and subjected to quantitative PCR using sequence specific primers (300 nM) and Brillant SYBR GREEN QPCR master mix (Fermentas, Saint-Rémy-lès-Chevreuse, France) on an Mx3000P apparatus (Agilent Technologies, Massy, France). Conditions were 1 cycle at 95° C. for 10 min followed by 40 cycles at 95° C. for 30 sec, 60° C. for 1 min and 72° C. for 30 sec. Gene expression values were normalized to the housekeeping gene 36B4. Time of steroid treatment was chosen to get the optimal stimulation for a given gene. ALPL and G0S8 mRNA were analyzed after 6 h of treatment. IEX-1, FASN, and BCL2 were analyzed after 24 h of treatment. Cyclin A mRNA was analyzed after 24 h for GR responses or 48 h for PR responses.

[2] = Hormone concentrations in serum of pellet-treated athymic mice; assay type: in vivo; conditions: female, NMRI nu/nu athymic, mouse, other: steroid pellets grafted onto the neck, 20 mg pellet (P from day 14, UPA from day 1), day 28, read-out: concentration in mice serum (mean±SEM)
Method: Four weeks old ovariectomized female NMRInu/nu 20 athymic mice were purchased from Janvier laboratory (Le Genest Saint Isle, France). Breast tissues samples were obtained from 6 women (aged 29-42 years). Human mammary gland tissue was cut into 2×2×2 mm fragments and 4 fragments were then subcutaneously xenografted onto the back of 4 mice per group. Four treatment groups were performed: control, E2, E2+P and E2+P+UPA. Treatments were administered by grafting steroid pellets onto the neck of each mouse. The experimental conditions were initially determined by using a dose range of hormones mixed with cholesterol into the pellets. Blood sample assays were performed after 2 weeks and 4 weeks of treatment to measure plasmatic hormonal concentrations. Finally, the dose of 0.3 mg for E2 and 20 mg for P and UPA were used, as it provides the expected blood concentrations. For the control groups, pellets containing only cholesterol were used. To reproduce menstrual cycle conditions, mice were grafted on the first day of experiment with cholesterol, E2 and/or UPA containing pellets and on the fourteen day with cholesterol or progesterone containing pellets in control and E2 groups, or in E+P and E2+P+UPA groups, respectively. Twenty eight days after the start of experiment, mice were sacrificed. Blood was collected for each mouse, and serum was frozen at −20° C. until hormone concentrations
Estradiol was measured by radioimmunoassay using Clinical Assays Estradiol-2 (Sorin Biomedica Diagnostics SpA, Saluggia, Italia). Progesterone levels were evaluated by UPLC-MSMS using Acquity UPLC and Quattro Premier XE (Waters, Milford Mass., USA).
UPA concentrations were measured using LC-MS/MS technique by MPI Research (State College, Pa., USA).

[3] = Tolerability and body weight in HBCx-34 tumor-bearing nude mice; assay type: in vivo; conditions: UPA 130 mg/kg p.o., 42 days
Method: Mice were allocated to different groups according to their tumor volume to give homogenous mean and median tumor volume in each treatment arms. Ten mice/group, with HBCx-34 tumors between 75 and 144 mm^3, were randomized according to their tumor volume into experimental groups, and treatments (UPA 130 mg/kg, p.o. or control vehicle) were initiated 33 days post implantation of the tumor for a total duration of 42 days.
Animals were weighted biweekly during all the experimental period. Toxicity of the different treatments was determined as body weight loss.

HBE cells = assay: Tritiated thymidine incorporation (proliferation) in HBE cells; assay type: cell-based, human; conditions: 96 h
Method: as §1, §2

GR = biological target: T1, GR (Homo sapiens, UniProt P04150); assay: GRE-Luc reporter gene transactivation in HBE cells; assay type: cell-based; conditions: DEX 100 nM, test compound 100 nM, read-out: inhibition of DEX induced luciferase transactivation (GRE-Luc)
T1 sequence (P04150 1-777): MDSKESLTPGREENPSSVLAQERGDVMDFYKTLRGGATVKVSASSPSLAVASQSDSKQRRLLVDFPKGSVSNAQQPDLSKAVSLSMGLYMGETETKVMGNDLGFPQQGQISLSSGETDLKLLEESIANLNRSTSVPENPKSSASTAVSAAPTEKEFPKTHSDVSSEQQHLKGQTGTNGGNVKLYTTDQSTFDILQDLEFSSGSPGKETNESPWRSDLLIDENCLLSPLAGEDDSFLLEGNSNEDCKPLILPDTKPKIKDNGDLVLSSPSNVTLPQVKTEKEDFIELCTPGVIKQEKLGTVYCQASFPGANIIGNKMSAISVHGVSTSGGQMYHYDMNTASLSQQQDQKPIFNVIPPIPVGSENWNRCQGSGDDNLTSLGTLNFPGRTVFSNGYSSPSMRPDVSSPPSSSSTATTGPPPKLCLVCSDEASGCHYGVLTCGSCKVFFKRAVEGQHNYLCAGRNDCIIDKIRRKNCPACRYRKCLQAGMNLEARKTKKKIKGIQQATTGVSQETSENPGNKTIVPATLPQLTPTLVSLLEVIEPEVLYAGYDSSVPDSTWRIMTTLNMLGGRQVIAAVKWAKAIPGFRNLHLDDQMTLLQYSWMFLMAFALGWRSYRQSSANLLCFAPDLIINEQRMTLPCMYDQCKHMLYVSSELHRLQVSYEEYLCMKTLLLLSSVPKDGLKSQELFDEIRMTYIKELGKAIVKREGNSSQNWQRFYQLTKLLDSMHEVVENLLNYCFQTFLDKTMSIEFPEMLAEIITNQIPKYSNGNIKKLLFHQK

## CC(=O)O[C@]1(C(C)=O)CCC2C3CCC4=CC(=O)CCC4=C3[C@@H](c3ccc(N(C)C)cc3)C[C@@]21C (stereo partly drawn) [UPA, 17[…]-acetoxy-11[…]-[4-N,N-dimethylamino-phenyl)-19-norpregna-4,9-diene-3,20-dione]
T-47D cells; 100 nM
  cell proliferation ([3H] thymidine incorporation), compound alone: had no effect on proliferation
T-47D cells; P 100 nM + UPA 100 nM
  effect of UPA on P-mediated proliferation change: reversed P anti-proliferative activity
[1]; DEX and/or UPA 100 nM, 6 h
  G0S8 mRNA expression: slight and non-significant antagonist effect
[1]; DEX and/or UPA 100 nM, 24 h
  BCL2 mRNA expression (GR response): did not reverse the DEX down-regulation of BCL2 mRNA
  IEX-1 mRNA expression: did not antagonize this response
  cyclin A mRNA expression (GR response): partially inhibited DEX effect on cyclin A mRNA expression
[1]; UPA 100 nM alone
  glucocorticoid agonist activity on GR target genes: did not display any glucocorticoid agonist activity
[2]
  concentration at 28 days: 63.5 ± 10.5 ng/mL
[3]
  body weight loss: no significant body weight loss
  tolerability of treatment: well tolerated
  treatment related clinical observation: No treatment related clinical observation
HBE cells; 100 nM
  cell proliferation ([3H] thymidine incorporation), compound alone: had no effect on proliferation
HBE cells; DEX 100 nM + UPA 100 nM
  effect of UPA on DEX-mediated proliferation change: inhibited the strong proliferative activity induced by DEX
HBE cells; P 100 nM + UPA 100 nM
  effect of UPA on P-mediated proliferation change: did not inhibit the anti-proliferative effect induced by P
GR
  inhibition at 0.1 µM: 41.3 ± 5.8%
